Experimental data reported in patent publication US20180055032A1, “ODORS FOR PSYLLID TRAPPING, REPELLING AND CONTROL” (The Regents of the University of California, priority 2011, published 2018).
Where two headings read alike, the source gives them in different places.

Legend:
Assay type in all cases: cell-based, Diaphorina citri
[1] = tested on: neuron 2C (rhinarial plate on flagellomere 2); experiment: single-sensillum electrophysiology, odor response of neuron 2C; details: Table 1; odor diluted to 1%, 50 μL in cartridge
[2] = tested on: neuron 7A (rhinarial plate on flagellomere 7); experiment: single-sensillum electrophysiology, odor response of neuron 7A; details: Table 1; odor diluted to 1%, 50 μL in cartridge; also: key: 0, no response; +, >50 spikes/second; ++, >100 spikes/second; +++, >150 spikes/second
[3] = tested on: neuron 2B (rhinarial plate on flagellomere 2); experiment: single-sensillum electrophysiology, odor response of neuron 2B; details: Table 1; odor diluted to 1%, 50 μL in cartridge
[4] = tested on: neuron 6C (rhinarial plate on flagellomere 6); experiment: single-sensillum electrophysiology, odor response of neuron 6C; details: Table 1; odor diluted to 1%, 50 μL in cartridge
[5] = tested on: neuron 4B (rhinarial plate on flagellomere 4)
[6] = tested on: neuron 2A (rhinarial plate on flagellomere 2); experiment: single-sensillum electrophysiology, odor response of neuron 2A; details: Table 1; odor diluted to 1%, 50 μL in cartridge; also: key: 0, no response; +, >50 spikes/second; ++, >100 spikes/second; +++, >150 spikes/second
[7] = tested on: neuron 7C (rhinarial plate on flagellomere 7); experiment: single-sensillum electrophysiology, odor response of neuron 7C; details: Table 1; odor diluted to 1%, 50 μL in cartridge
[8] = tested on: neuron 6B (rhinarial plate on flagellomere 6); experiment: single-sensillum electrophysiology, odor response of neuron 6B; details: Table 1; odor diluted to 1%, 50 μL in cartridge
[9] = tested on: neuron 4C (rhinarial plate on flagellomere 4); experiment: single-sensillum electrophysiology, odor response of neuron 4C; details: Table 1; odor diluted to 1%, 50 μL in cartridge
[10] = tested on: neuron 6A (rhinarial plate on flagellomere 6); experiment: single-sensillum electrophysiology, odor response of neuron 6A; details: Table 1; odor diluted to 1%, 50 μL in cartridge
[11] = tested on: neuron 4A (rhinarial plate on flagellomere 4); experiment: single-sensillum electrophysiology, odor response of neuron 4A; details: Table 1; odor diluted to 1%, 50 μL in cartridge
[12] = tested on: neuron 7B (rhinarial plate on flagellomere 7)
[13] = Table 1, odor diluted to 1%, 50 μL in cartridge

## CCCCCCCC=O [octanal]
[1]
  odor response (frequency of action potentials during stimulus minus baseline), 2C: 0
[2]
  odor response (frequency of action potentials during stimulus minus baseline), 7A: 0
[3]
  odor response (frequency of action potentials during stimulus minus baseline), 2B: + (+, >50 spikes/second)
[4]
  odor response (frequency of action potentials during stimulus minus baseline), 6C: + (+, >50 spikes/second)
[5]; [13]
  odor response (frequency of action potentials during stimulus minus baseline), 4B: 0
[6]
  odor response (frequency of action potentials during stimulus minus baseline), 2A: 0
[7]
  odor response (frequency of action potentials during stimulus minus baseline), 7C: 0
[8]
  odor response (frequency of action potentials during stimulus minus baseline), 6B: 0
[9]
  odor response (frequency of action potentials during stimulus minus baseline), 4C: + (+, >50 spikes/second)
[10]
  odor response (frequency of action potentials during stimulus minus baseline), 6A: + (+, >50 spikes/second)
[11]
  odor response (frequency of action potentials during stimulus minus baseline), 4A: + (+, >50 spikes/second)
[12]; [13]
  odor response (frequency of action potentials during stimulus minus baseline), 7B: ++ (++, >100 spikes/second)

## Cc1ccc(C(C)C)cc1 [p-cymene]
[1]
  odor response (frequency of action potentials during stimulus minus baseline), 2C: 0
[2]
  odor response (frequency of action potentials during stimulus minus baseline), 7A: 0
[3]
  odor response (frequency of action potentials during stimulus minus baseline), 2B: 0
[4]
  odor response (frequency of action potentials during stimulus minus baseline), 6C: 0
[5]; [13]
  odor response (frequency of action potentials during stimulus minus baseline), 4B: +++ (+++, >150 spikes/second)
[6]
  odor response (frequency of action potentials during stimulus minus baseline), 2A: 0
[7]
  odor response (frequency of action potentials during stimulus minus baseline), 7C: 0
[8]
  odor response (frequency of action potentials during stimulus minus baseline), 6B: ++ (++, >100 spikes/second)
[9]
  odor response (frequency of action potentials during stimulus minus baseline), 4C: 0
[10]
  odor response (frequency of action potentials during stimulus minus baseline), 6A: 0
[11]
  odor response (frequency of action potentials during stimulus minus baseline), 4A: 0
[12]; [13]
  odor response (frequency of action potentials during stimulus minus baseline), 7B: 0

## CCCCCOC(C)=O [pentyl acetate]
[1]
  odor response (frequency of action potentials during stimulus minus baseline), 2C: ++ (++, >100 spikes/second)
[2]
  odor response (frequency of action potentials during stimulus minus baseline), 7A: 0
[3]
  odor response (frequency of action potentials during stimulus minus baseline), 2B: 0
[4]
  odor response (frequency of action potentials during stimulus minus baseline), 6C: 0
[5]; [13]
  odor response (frequency of action potentials during stimulus minus baseline), 4B: + (+, >50 spikes/second)
[6]
  odor response (frequency of action potentials during stimulus minus baseline), 2A: 0
[7]
  odor response (frequency of action potentials during stimulus minus baseline), 7C: 0
[8]
  odor response (frequency of action potentials during stimulus minus baseline), 6B: ++ (++, >100 spikes/second)
[9]
  odor response (frequency of action potentials during stimulus minus baseline), 4C: 0
[10]
  odor response (frequency of action potentials during stimulus minus baseline), 6A: 0
[11]
  odor response (frequency of action potentials during stimulus minus baseline), 4A: 0
[12]; [13]
  odor response (frequency of action potentials during stimulus minus baseline), 7B: 0

## O=CCc1ccccc1 [phenylacetaldehyde]
[1]
  odor response (frequency of action potentials during stimulus minus baseline), 2C: 0
[2]
  odor response (frequency of action potentials during stimulus minus baseline), 7A: 0
[3]
  odor response (frequency of action potentials during stimulus minus baseline), 2B: 0
[4]
  odor response (frequency of action potentials during stimulus minus baseline), 6C: 0
[5]; [13]
  odor response (frequency of action potentials during stimulus minus baseline), 4B: + (+, >50 spikes/second)
[6]
  odor response (frequency of action potentials during stimulus minus baseline), 2A: 0
[7]
  odor response (frequency of action potentials during stimulus minus baseline), 7C: 0
[8]
  odor response (frequency of action potentials during stimulus minus baseline), 6B: + (+, >50 spikes/second)
[9]
  odor response (frequency of action potentials during stimulus minus baseline), 4C: 0
[10]
  odor response (frequency of action potentials during stimulus minus baseline), 6A: 0
[11]
  odor response (frequency of action potentials during stimulus minus baseline), 4A: 0
[12]; [13]
  odor response (frequency of action potentials during stimulus minus baseline), 7B: 0

## CC1=CCC(=C(C)C)CC1 [terpinolene]
[1]
  odor response (frequency of action potentials during stimulus minus baseline), 2C: 0
[2]
  odor response (frequency of action potentials during stimulus minus baseline), 7A: 0
[3]
  odor response (frequency of action potentials during stimulus minus baseline), 2B: 0
[4]
  odor response (frequency of action potentials during stimulus minus baseline), 6C: 0
[5]; [13]
  odor response (frequency of action potentials during stimulus minus baseline), 4B: + (+, >50 spikes/second)
[6]
  odor response (frequency of action potentials during stimulus minus baseline), 2A: 0
[7]
  odor response (frequency of action potentials during stimulus minus baseline), 7C: 0
[8]
  odor response (frequency of action potentials during stimulus minus baseline), 6B: + (+, >50 spikes/second)
[9]
  odor response (frequency of action potentials during stimulus minus baseline), 4C: 0
[10]
  odor response (frequency of action potentials during stimulus minus baseline), 6A: 0
[11]
  odor response (frequency of action potentials during stimulus minus baseline), 4A: 0
[12]; [13]
  odor response (frequency of action potentials during stimulus minus baseline), 7B: 0

## O [water]
[1]
  odor response (frequency of action potentials during stimulus minus baseline), 2C: 0
[2]
  odor response (frequency of action potentials during stimulus minus baseline), 7A: 0
[3]
  odor response (frequency of action potentials during stimulus minus baseline), 2B: 0
[4]
  odor response (frequency of action potentials during stimulus minus baseline), 6C: + (+, >50 spikes/second)
[5]
  odor response (frequency of action potentials during stimulus minus baseline), 4B: 0
[6]
  odor response (frequency of action potentials during stimulus minus baseline), 2A: 0
[7]
  odor response (frequency of action potentials during stimulus minus baseline), 7C: 0
[8]
  odor response (frequency of action potentials during stimulus minus baseline), 6B: 0
[9]
  odor response (frequency of action potentials during stimulus minus baseline), 4C: + (+, >50 spikes/second)
[10]
  odor response (frequency of action potentials during stimulus minus baseline), 6A: 0
[11]
  odor response (frequency of action potentials during stimulus minus baseline), 4A: 0
[12]
  odor response (frequency of action potentials during stimulus minus baseline), 7B: 0

## C/C1=C\CC/C(C)=C/CC(C)(C)/C=C/C1 [α-humulene]
[1]
  odor response (frequency of action potentials during stimulus minus baseline), 2C: 0
[2]
  odor response (frequency of action potentials during stimulus minus baseline), 7A: 0
[3]
  odor response (frequency of action potentials during stimulus minus baseline), 2B: ++ (++, >100 spikes/second)
[4]
  odor response (frequency of action potentials during stimulus minus baseline), 6C: 0
[5]; [13]
  odor response (frequency of action potentials during stimulus minus baseline), 4B: 0
[6]
  odor response (frequency of action potentials during stimulus minus baseline), 2A: 0
[7]
  odor response (frequency of action potentials during stimulus minus baseline), 7C: 0
[8]
  odor response (frequency of action potentials during stimulus minus baseline), 6B: 0
[9]
  odor response (frequency of action potentials during stimulus minus baseline), 4C: 0
[10]
  odor response (frequency of action potentials during stimulus minus baseline), 6A: 0
[11]
  odor response (frequency of action potentials during stimulus minus baseline), 4A: 0
[12]; [13]
  odor response (frequency of action potentials during stimulus minus baseline), 7B: ++ (++, >100 spikes/second)

## CC1=CC=C(C(C)C)CC1 [α-terpinene]
[1]
  odor response (frequency of action potentials during stimulus minus baseline), 2C: 0
[2]
  odor response (frequency of action potentials during stimulus minus baseline), 7A: 0
[3]
  odor response (frequency of action potentials during stimulus minus baseline), 2B: 0
[4]
  odor response (frequency of action potentials during stimulus minus baseline), 6C: 0
[5]; [13]
  odor response (frequency of action potentials during stimulus minus baseline), 4B: ++ (++, >100 spikes/second)
[6]
  odor response (frequency of action potentials during stimulus minus baseline), 2A: 0
[7]
  odor response (frequency of action potentials during stimulus minus baseline), 7C: 0
[8]
  odor response (frequency of action potentials during stimulus minus baseline), 6B: ++ (++, >100 spikes/second)
[9]
  odor response (frequency of action potentials during stimulus minus baseline), 4C: 0
[10]
  odor response (frequency of action potentials during stimulus minus baseline), 6A: 0
[11]
  odor response (frequency of action potentials during stimulus minus baseline), 4A: 0
[12]; [13]
  odor response (frequency of action potentials during stimulus minus baseline), 7B: 0

## C=C1CC/C=C(\C)CC[C@@H]2[C@@H]1CC2(C)C [β-caryophyllene]
[1]
  odor response (frequency of action potentials during stimulus minus baseline), 2C: 0
[2]
  odor response (frequency of action potentials during stimulus minus baseline), 7A: 0
[3]
  odor response (frequency of action potentials during stimulus minus baseline), 2B: ++ (++, >100 spikes/second)
[4]
  odor response (frequency of action potentials during stimulus minus baseline), 6C: 0
[5]; [13]
  odor response (frequency of action potentials during stimulus minus baseline), 4B: 0
[6]
  odor response (frequency of action potentials during stimulus minus baseline), 2A: 0
[7]
  odor response (frequency of action potentials during stimulus minus baseline), 7C: 0
[8]
  odor response (frequency of action potentials during stimulus minus baseline), 6B: 0
[9]
  odor response (frequency of action potentials during stimulus minus baseline), 4C: 0
[10]
  odor response (frequency of action potentials during stimulus minus baseline), 6A: 0
[11]
  odor response (frequency of action potentials during stimulus minus baseline), 4A: 0
[12]; [13]
  odor response (frequency of action potentials during stimulus minus baseline), 7B: + (+, >50 spikes/second)

## CC1=CCC(C(C)C)=CC1 [γ-terpinene]
[1]
  odor response (frequency of action potentials during stimulus minus baseline), 2C: 0
[2]
  odor response (frequency of action potentials during stimulus minus baseline), 7A: 0
[3]
  odor response (frequency of action potentials during stimulus minus baseline), 2B: 0
[4]
  odor response (frequency of action potentials during stimulus minus baseline), 6C: 0
[5]; [13]
  odor response (frequency of action potentials during stimulus minus baseline), 4B: +++ (+++, >150 spikes/second)
[6]
  odor response (frequency of action potentials during stimulus minus baseline), 2A: 0
[7]
  odor response (frequency of action potentials during stimulus minus baseline), 7C: 0
[8]
  odor response (frequency of action potentials during stimulus minus baseline), 6B: ++ (++, >100 spikes/second)
[9]
  odor response (frequency of action potentials during stimulus minus baseline), 4C: 0
[10]
  odor response (frequency of action potentials during stimulus minus baseline), 6A: 0
[11]
  odor response (frequency of action potentials during stimulus minus baseline), 4A: 0
[12]; [13]
  odor response (frequency of action potentials during stimulus minus baseline), 7B: 0

## CC1=CCC2C(C1)C2(C)C (stereo not drawn) [δ-3-carene]
[1]
  odor response (frequency of action potentials during stimulus minus baseline), 2C: 0
[2]
  odor response (frequency of action potentials during stimulus minus baseline), 7A: 0
[3]
  odor response (frequency of action potentials during stimulus minus baseline), 2B: 0
[4]
  odor response (frequency of action potentials during stimulus minus baseline), 6C: 0
[5]; [13]
  odor response (frequency of action potentials during stimulus minus baseline), 4B: ++ (++, >100 spikes/second)
[6]
  odor response (frequency of action potentials during stimulus minus baseline), 2A: 0
[7]
  odor response (frequency of action potentials during stimulus minus baseline), 7C: 0
[8]
  odor response (frequency of action potentials during stimulus minus baseline), 6B: ++ (++, >100 spikes/second)
[9]
  odor response (frequency of action potentials during stimulus minus baseline), 4C: 0
[10]
  odor response (frequency of action potentials during stimulus minus baseline), 6A: 0
[11]
  odor response (frequency of action potentials during stimulus minus baseline), 4A: 0
[12]; [13]
  odor response (frequency of action potentials during stimulus minus baseline), 7B: 0
